Numbers after ± are expanded uncertainties.
Experiments:
[1] = 101.33 kPa, Crystal, Thin-film microcalorimeter
[2] = molar heat capacity at constant pressure; conditions: 101.33 kPa, Crystal, Thin-film microcalorimeter

With `[O-2].[Zn+2]` [zinc(II) oxide] the molar entropy ([1]; 1 K) was 2e-05 ± 2e-06 J/K/mol, the molar entropy ([1]; 2 K) was 0.0001 ± 0.0001 J/K/mol and the molar entropy ([1]; 3 K) was 0.0005 ± 0.0001 J/K/mol. The molar entropy ([1]; 4 K) was 0.0012 ± 0.0001 J/K/mol, the molar entropy ([1]; 5 K) was 0.0023 ± 0.0002 J/K/mol and the molar entropy ([1]; 6 K) was 0.004 ± 0.0002 J/K/mol. The molar entropy ([1]; 7 K) was 0.0064 ± 0.0004 J/K/mol, the molar entropy ([1]; 8 K) was 0.0096 ± 0.0006 J/K/mol and the molar entropy ([1]; 9 K) was 0.0136 ± 0.0008 J/K/mol. For the same compound, the molar entropy ([1]; 10 K) was 0.0188 ± 0.0006 J/K/mol, the molar entropy ([1]; 11 K) was 0.0252 ± 0.0008 J/K/mol and the molar entropy ([1]; 12 K) was 0.0332 ± 0.001 J/K/mol. For the same compound, the molar entropy ([1]; 13 K) was 0.0428 ± 0.0013 J/K/mol, the molar entropy ([1]; 14 K) was 0.0545 ± 0.0017 J/K/mol and the molar entropy ([1]; 15 K) was 0.0684 ± 0.0021 J/K/mol. It also gave a molar entropy ([1]; 16 K) of 0.085 ± 0.0026 J/K/mol, a molar entropy ([1]; 17 K) of 0.1045 ± 0.0032 J/K/mol and a molar entropy ([1]; 18 K) of 0.1272 ± 0.0038 J/K/mol. The molar entropy ([1]; 19 K) was 0.1533 ± 0.0046 J/K/mol, the molar entropy ([1]; 20 K) was 0.1833 ± 0.0055 J/K/mol and the molar entropy ([1]; 25 K) was 0.3964 ± 0.012 J/K/mol. For the same compound, the molar entropy ([1]; 30 K) was 0.7254 ± 0.022 J/K/mol, the molar entropy ([1]; 35 K) was 1.169 ± 0.035 J/K/mol and the molar entropy ([1]; 40 K) was 1.714 ± 0.051 J/K/mol. For the same compound, the molar entropy ([1]; 45 K) was 2.341 ± 0.07 J/K/mol, the molar entropy ([1]; 50 K) was 3.035 ± 0.091 J/K/mol and the molar entropy ([1]; 55 K) was 3.781 ± 0.11 J/K/mol. For the same compound, the molar entropy ([1]; 60 K) was 4.569 ± 0.14 J/K/mol, the molar entropy ([1]; 65 K) was 5.382 ± 0.16 J/K/mol and the molar entropy ([1]; 70 K) was 6.216 ± 0.19 J/K/mol. It also gave a molar entropy ([1]; 75 K) of 7.065 ± 0.21 J/K/mol, a molar entropy ([1]; 80 K) of 7.928 ± 0.24 J/K/mol and a molar entropy ([1]; 85 K) of 8.798 ± 0.26 J/K/mol. It also gave a molar entropy ([1]; 90 K) of 9.675 ± 0.29 J/K/mol, a molar entropy ([1]; 95 K) of 10.56 ± 0.32 J/K/mol and a molar entropy ([1]; 100 K) of 11.44 ± 0.34 J/K/mol. It also gave a molar entropy ([1]; 110 K) of 13.21 ± 0.4 J/K/mol, a molar entropy ([1]; 120 K) of 14.98 ± 0.45 J/K/mol and a molar entropy ([1]; 130 K) of 16.73 ± 0.5 J/K/mol. For the same compound, the molar entropy ([1]; 140 K) was 18.48 ± 0.55 J/K/mol, the molar entropy ([1]; 150 K) was 20.21 ± 0.61 J/K/mol and the molar entropy ([1]; 160 K) was 21.92 ± 0.66 J/K/mol. For the same compound, the molar entropy ([1]; 170 K) was 23.61 ± 0.71 J/K/mol, the molar entropy ([1]; 180 K) was 25.28 ± 0.76 J/K/mol and the molar entropy ([1]; 190 K) was 26.93 ± 0.81 J/K/mol. For the same compound, the molar entropy ([1]; 200 K) was 28.55 ± 0.86 J/K/mol, the molar entropy ([1]; 210 K) was 30.15 ± 0.9 J/K/mol and the molar entropy ([1]; 220 K) was 31.72 ± 0.95 J/K/mol. The molar entropy ([1]; 230 K) was 33.26 ± 1 J/K/mol, the molar entropy ([1]; 240 K) was 34.78 ± 1 J/K/mol and the molar entropy ([1]; 250 K) was 36.27 ± 1.1 J/K/mol. For the same compound, the molar entropy ([1]; 260 K) was 37.74 ± 1.1 J/K/mol, the molar entropy ([1]; 270 K) was 39.18 ± 1.2 J/K/mol and the molar entropy ([1]; 273.15 K) was 39.63 ± 1.2 J/K/mol. The molar entropy ([1]; 280 K) was 40.59 ± 1.2 J/K/mol, the molar entropy ([1]; 290 K) was 41.98 ± 1.3 J/K/mol and the molar entropy ([1]; 298.15 K) was 43.09 ± 1.3 J/K/mol. For the same compound, the molar entropy ([1]; 300 K) was 43.34 ± 1.3 J/K/mol, the “molar heat capacity at constant pressure” value ([2]; 1 K) was 6e-05 ± 5e-06 J/K/mol and the “molar heat capacity at constant pressure” value ([2]; 1.906 K) was 0.0004 ± 0.0001 J/K/mol. For the same compound, the “molar heat capacity at constant pressure” value ([2]; 2 K) was 0.0004 ± 0.0001 J/K/mol, the “molar heat capacity at constant pressure” value ([2]; 2.105 K) was 0.0005 ± 0.0001 J/K/mol and the “molar heat capacity at constant pressure” value ([2]; 2.329 K) was 0.0007 ± 0.0001 J/K/mol. For the same compound, the “molar heat capacity at constant pressure” value ([2]; 2.579 K) was 0.0009 ± 0.0001 J/K/mol, the “molar heat capacity at constant pressure” value ([2]; 2.856 K) was 0.0013 ± 0.0001 J/K/mol and the “molar heat capacity at constant pressure” value ([2]; 3 K) was 0.0015 ± 0.0001 J/K/mol. The “molar heat capacity at constant pressure” value ([2]; 3.169 K) was 0.0018 ± 0.0001 J/K/mol, the “molar heat capacity at constant pressure” value ([2]; 3.509 K) was 0.0024 ± 0.0001 J/K/mol and the “molar heat capacity at constant pressure” value ([2]; 3.893 K) was 0.0033 ± 0.0002 J/K/mol. For the same compound, the “molar heat capacity at constant pressure” value ([2]; 4 K) was 0.0036 ± 0.0002 J/K/mol, the “molar heat capacity at constant pressure” value ([2]; 4.319 K) was 0.0045 ± 0.0002 J/K/mol and the “molar heat capacity at constant pressure” value ([2]; 4.794 K) was 0.0062 ± 0.0003 J/K/mol. The “molar heat capacity at constant pressure” value ([2]; 5 K) was 0.007 ± 0.0003 J/K/mol, the “molar heat capacity at constant pressure” value ([2]; 5.322 K) was 0.0085 ± 0.0004 J/K/mol and the “molar heat capacity at constant pressure” value ([2]; 5.907 K) was 0.0115 ± 0.0005 J/K/mol. For the same compound, the “molar heat capacity at constant pressure” value ([2]; 6 K) was 0.0121 ± 0.0005 J/K/mol, the “molar heat capacity at constant pressure” value ([2]; 6.557 K) was 0.0158 ± 0.0006 J/K/mol and the “molar heat capacity at constant pressure” value ([2]; 7 K) was 0.0193 ± 0.0008 J/K/mol. For the same compound, the “molar heat capacity at constant pressure” value ([2]; 7.279 K) was 0.0217 ± 0.0009 J/K/mol, the “molar heat capacity at constant pressure” value ([2]; 8 K) was 0.0288 ± 0.0012 J/K/mol and the “molar heat capacity at constant pressure” value ([2]; 8.084 K) was 0.0296 ± 0.0012 J/K/mol. For the same compound, the “molar heat capacity at constant pressure” value ([2]; 8.978 K) was 0.0409 ± 0.0017 J/K/mol, the “molar heat capacity at constant pressure” value ([2]; 9 K) was 0.0414 ± 0.0017 J/K/mol and the “molar heat capacity at constant pressure” value ([2]; 9.969 K) was 0.0573 ± 0.0023 J/K/mol. For the same compound, the “molar heat capacity at constant pressure” value ([2]; 10 K) was 0.0577 ± 0.0012 J/K/mol, the “molar heat capacity at constant pressure” value ([2]; 11 K) was 0.0785 ± 0.0016 J/K/mol and the “molar heat capacity at constant pressure” value ([2]; 11.07 K) was 0.0803 ± 0.0017 J/K/mol.
